# Test system: AGS cells (KRAS^G12D)
# Experiment: Detection of cell proliferation in vitro by MTT/MTS method (cell activity experiment)
# Type: cell-based
# Settings: Homo sapiens, AGS, 72 h, AGS cells; MTT/MTS; 3 days of drug treatment; read-out: AGS IC50
# Summary of the method: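 KRAS G12D AGS cells seeded at 1000 per well, compound added 24 h later, 0.5% final DMSO. Viability read after 3 days of treatment by MTT (solubilised in DMSO) or MTS, 4 h, absorbance 490 nm. IC50 from dose–response curves versus DMSO control.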
row,SMILES,IC50 [nM]
1,"C=C1CCCc2cc(O)cc(-c3ncc4c(N5C[C@H]6CC[C@@H](C5)N6)nc(OC[C@@]56CCCN5C[C@H](F)C6)nc4c3F)c21 [Example 253, 4-(4-((1R,5S)-3,8-diazabicyclo[3.2.1]octan-3-yl)-8-fluoro-2-(((2R,7aS)-2-fluorotetrahydro-1H-pyrrolizin-7a(5H)-yl)methoxy)pyrido[4,3-d]pyrimidin-7-yl)-5-methylene-5,6,7,8-tetrahydronaphthalen-2-ol]",42
2,"C#Cc1c(F)ccc2cc(O)cc(-c3ccc4c(N5CC6(CNC6)C5)nc(OC[C@@]56CCCN5C[C@H](F)C6)nc4c3F)c12 [Example 135, 5-ethynyl-6-fluoro-4-(8-fluoro-2-(((2R, 7aS)-2-fluorotetrahydro-1H-pyrrolizin-7a(5H)-yl)methoxy)-4-(2,6-diazaspiro[3.3]heptan-2-yl)quinazolin-7-yl)naphthalen-2-ol]",1200
3,"Cc1cc(N)nc(-c2ccc3c(N4C[C@H]5CC[C@@H](C4)N5)nc(OC[C@@]45CCCN4C[C@H](F)C5)nc3c2F)c1C1CC1 [Example 139, 6-(4-((1R,5S)-3,8-diazabicyclo[3.2.1]octan-3-yl)-8-fluoro-2-(((2R,7aS)-2-fluorotetrahydro-1H-pyrrolizin-7a(5H)-yl)methoxy)quinazolin-7-yl)-5-cyclopropyl-4-methylpyridin-2-amine]",> 2500
4,"CCC1CCc2cc(O)cc(-c3cc4nc(OC[C@@]56CCCN5C[C@H](F)C6)nc(N5C[C@H]6CC[C@@H](C5)N6)c4c4occc34)c21 (stereo partly drawn) [Example 386, 7-(9-((1R,5S)-3,8-diazabicyclo[3.2.1]octan-3-yl)-7-(((2R,7aS)-2-fluorotetrahydro-1H-pyrrolizin-7a(5H)-yl)methoxy)furo[2,3-f]quinazolin-4-yl)-1-ethyl-2,3-dihydro-1H-inden-5-ol]",508
5,"CCc1cccc2cc(O)cc(-c3ncc4c(N5C[C@H]6CC[C@@H](C5)O6)nc(OC[C@@]56CCCN5C[C@H](F)C6)nc4c3F)c12 [Example 14, 4-(4-((1R,5S)-8-oxa-3-azabicyclo[3.2.1]octan-3-yl)-8-fluoro-2-(((2R,7aS)-2-fluorotetrahydro-1H-pyrrolizin-7a(5H)-yl)methoxy)pyrido[4,3-d]pyrimidin-7-yl)-5-ethylnaphthalen-2-ol]",330
6,"CCC1CCCc2cc(O)cc(-c3cc4nc(OC[C@@]56CCCN5C[C@H](F)C6)nc(N5C[C@H]6CC[C@@H](C5)N6)c4c4occc34)c21 (stereo partly drawn) [Example 388, 4-(9-((1R,5S)-3,8-diazabicyclo[3.2.1]octan-3-yl)-7-(((2R,7aS)-2-fluorotetrahydro-1H-pyrrolizin-7a(5H)-yl)methoxy)furo[2,3-f]quinazolin-4-yl)-5-ethyl-5,6,7,8-tetrahydronaphthalen-2-ol]",493
7,"C#Cc1c(F)ccc2cc(O)cc(-c3ccc4c(N5CCC6(CC5)CO[C@@H](C)[C@H]6N)nc(OC[C@@]56CCCN5C[C@H](F)C6)nc4c3F)c12 [Example 114, 4-(4-((3S,4S)-4-amino-3-methyl-2-oxa-8-azaspiro[4.5]decan-8-yl)-8-fluoro-2-(((2R, 7aS)-2-fluorotetrahydro-1H-pyrrolizin-7a(5H)-yl)methoxy)quinazolin-7-yl)-5-ethynyl-6-fluoronaphthalen-2-ol]",> 2500
8,"Oc1cc2c(c(-c3ncc4c(N5C[C@H]6CC[C@@H](C5)N6)nc(OC[C@@]56CCCN5C[C@H](F)C6)nc4c3F)c1)C(C(F)(F)F)CCC2 (stereo partly drawn) [Example 260, 4-(4-((1R,5S)-3,8-diazabicyclo[3.2.1]octan-3-yl)-8-fluoro-2-(((2R,7aS)-2-fluorotetrahydro-1H-pyrrolizin-7a(5H)-yl)methoxy)pyrido[4,3-d]pyrimidin-7-yl)-5-(trifluoromethyl)-5,6,7,8-tetrahydronaphthalen-2-ol]",417
9,"C#Cc1c(F)ccc2cc(N)nc(-c3ncc4c(N5C[C@H]6CC[C@@H](C5)N6)nc(OC[C@@]56CCCN5C[C@H](F)C6)nc4c3F)c12 [Example 40, 1-(4-((1R,5S)-3,8-diazabicyclo[3.2.1]octan-3-yl)-8-fluoro-2-(((2R,7aS)-2-fluorotetrahydro-1H-pyrrolizin-7a(5H)-yl)methoxy)pyrido[4,3-d]pyrimidin-7-yl)-8-ethynyl-7-fluoroisoquinolin-3-amine]",> 2500
10,"CC1CCc2cc(O)cc(-c3ccc4c(N5C[C@H]6CC[C@@H](C5)N6)nc(OC[C@@]56CCCN5C[C@H](F)C6)nc4c3F)c21 (stereo partly drawn) [Example 286, 7-(4-((1R,5S)-3,8-diazabicyclo[3.2.1]octan-3-yl)-8-fluoro-2-(((2R,7aS)-2-fluorotetrahydro-1H-pyrrolizin-7a(5H)-yl)methoxy)quinazolin-7-yl)-1-methyl-2,3-dihydro-1H-inden-5-ol]",29
11,"Nc1cc2ccc(F)c(Cl)c2c(-c2ncc3c(N4C[C@H]5CC[C@@H](C4)N5)nc(OC[C@@]45CCCN4C[C@H](F)C5)nc3c2F)n1 [Example 39, 1-(4-((1R,5S)-3,8-diazabicyclo[3.2.1]octan-3-yl)-8-fluoro-2-(((2R,7aS)-2-fluorotetrahydro-1H-pyrrolizin-7a(5H)-yl)methoxy)pyrido[4,3-d]pyrimidin-7-yl)-8-chloro-7-fluoroisoquinolin-3-amine]",> 2500
12,"C#Cc1c(F)ccc2cccc(N3CCc4c(nc(OC[C@@]56CCCN5C[C@H](COC(=O)N(C)C)C6)nc4N4C[C@H]5CC[C@@H](C4)N5)C3)c12 [Example 211, ((2R,7aS)-7a-(((4-((1R,5S)-3,8-diazabicyclo[3.2.1]octan-3-yl)-7-(8-ethynyl-7-fluoronaphthalen-1-yl)-5,6,7,8-tetrahydropyrido[3,4-d]pyrimidin-2-yl)oxy)methyl)hexahydro-1H-pyrrolizin-2-yl)methyl dimethylcarbamate]",55
13,"CCc1cccc2cc(O)cc(-c3ncc4c(C5C[C@H]6CC[C@@H](C5)N6)nc(OC[C@@]56CCCN5C[C@H](F)C6)nc4c3F)c12 (stereo partly drawn) [Example 81, 4-(4-((1R,5S)-8-azabicyclo[3.2.1]octan-3-yl)-8-fluoro-2-(((2R,7aS)-2-fluorotetrahydro-1H-pyrrolizin-7a(5H)-yl)methoxy)pyrido [4,3-d]pyrimidin-7-yl)-5-ethylnaphthalen-2-ol]",> 2500
14,"C#Cc1c(F)ccc2cc(O)cc(-c3ncc4c(N5CCC(NC)C5)nc(OC[C@@]56CCCN5C[C@H](F)C6)nc4c3F)c12 (stereo partly drawn) [Example 58, 5-ethynyl-6-fluoro-4-(8-fluoro-2-(((2R,7aS)-2-fluorotetrahydro-1H-pyrrolizin-7a(5H)-yl)methoxy)-4-(3-(methylamino)pyrrolidin-1-yl)pyrido[4,3-d]pyrimidin-7-yl)naphthalen-2-ol]",> 2500
15,"CCC1CCCc2cc(O)cc(-c3c4c(c5c(N6C[C@H]7CC[C@@H](C6)N7)nc(OC[C@@]67CCCN6C[C@H](F)C7)nc5c3F)CCC4)c21 (stereo partly drawn) [Example 383, 4-(1-((1R,5S)-3,8-diazabicyclo[3.2.1]octan-3-yl)-5-fluoro-3-(((2R,7aS)-2-fluorotetrahydro-1H-pyrrolizin-7a(5H)-yl)methoxy)-8,9-dihydro-7H-cyclopenta[f]quinazolin-6-yl)-5-ethyl-5,6,7,8-tetrahydronaphthalen-2-ol]",50
16,"C#Cc1cccc2cc(O)cc(N3CCc4c(nc(OC[C@@]56CCCN5C[C@H](F)C6)nc4N4C[C@H]5CC[C@@H](C4)N5)C3)c12 [Example 206, 4-(4-((1R,5S)-3,8-diazabicyclo[3.2.1]octan-3-yl)-2-(((2R,7aS)-2-fluorotetrahydro-1H-pyrrolizin-7a(5H)-yl)methoxy)-5,8-dihydropyrido[3,4-d]pyrimidin-7(6H)-yl)-5-ethynylnaphthalen-2-ol]",20
17,"CC[C@@H]1CCc2cc(O)cc(-c3ncc4c(N5CC6CCC(C5)N6)nc(OC[C@@]56CCCN5C[C@H](F)C6)nc4c3F)c21 (single isomer, unassigned) [Example 221, (R)-7-(4-((1R,5S)-3,8-diazabicyclo[3.2.1]octan-3-yl)-8-fluoro-2-(((2R,7aS)-2-fluorotetrahydro-1H-pyrrolizin-7a(5H)-yl)methoxy)pyrido[4,3-d]pyrimidin-7-yl)-1-ethyl-2,3-dihydro-1H-inden-5-ol or (S)-7-(4-((1R,5S)-3,8-diazabicyclo[3.2.1]octan-3-yl)-8-fluoro-2-(((2R,7aS)-2-fluorotetrahydro-1H-pyrrolizin-7a(5H)-yl)methoxy)pyrido[4,3-d]pyrimidin-7-yl)-1-ethyl-2,3-dihydro-1H-inden-5-ol]",875
18,"Oc1cc(-c2ncc3c(N4C[C@H]5CC[C@@H](C4)O5)nc(OC[C@@]45CCCN4C[C@H](F)C5)nc3c2F)c2c(F)cccc2c1 [Example 15, 4-(4-((1R,5S)-8-oxa-3-azabicyclo[3.2.1]octan-3-yl)-8-fluoro-2-(((2R,7aS)-2-fluorotetrahydro-1H-pyrrolizin-7a(5H)-yl)methoxy)pyrido[4,3-d]pyrimidin-7-yl)-5-fluoronaphthalen-2-ol]",320
19,"CCC1CCc2cc(O)cc(-c3ccc4c(NCC5(N(C)C)CCC5)nc(OC[C@@]56CCCN5C[C@H](F)C6)nc4c3F)c21 (stereo partly drawn) [Example 429, 7-(4-(((1-(dimethylamino)cyclobutyl)methyl)amino)-8-fluoro-2-(((2R,7aS)-2-fluorotetrahydro-1H-pyrrolizin-7a(5H)-yl)methoxy)quinazolin-7-yl)-1-ethyl-2,3-dihydro-1H-inden-5-ol]",75
20,"Oc1cc(-c2ccc3c(N4C[C@H]5CC[C@@H](C4)N5)nc(OCC4(CN5CCCC5)CC4)nc3c2F)c2c(F)cccc2c1 [Example 102, 4-(4-((1R,5S)-3,8-diazabicyclo[3.2.1]octan-3-yl)-8-fluoro-2-((1-(pyrrolidin-1-ylmethyl)cyclopropyl)methoxy)quinazolin-7-yl)-5-fluoronaphthalen-2-ol]",33
21,"Oc1cc2c(c(-c3ncc4c(N5C[C@H]6CC[C@@H](C5)N6)nc(OC[C@@]56CCCN5C[C@H](F)C6)nc4c3F)c1)C(CF)CCC2 (stereo partly drawn) [Example 262, 4-(4-((1R,5S)-3,8-diazabicyclo[3.2.1]octan-3-yl)-8-fluoro-2-(((2R,7aS)-2-fluorotetrahydro-1H-pyrrolizin-7a(5H)-yl)methoxy)pyrido[4,3-d]pyrimidin-7-yl)-5-(fluoromethyl)-5,6,7,8-tetrahydronaphthalen-2-ol]",305

# Reference: patent US20240300980A1, “HETEROCYCLIC COMPOUNDS AS KRAS INHIBITOR, AND PREPARATION THEREFOR AND USE THEREOF IN TREATMENT” (SHANGHAI KECHOW PHARMA, INC., priority 2021, published 2024)
